Assay results published in patent publication US20170304228A1, “NEW INDICATION OF CINACALCET HCL PHARMACEUTICAL COMPOSITION FOR TREATING CANCER” (LAUNX BIOMEDICAL CO., LTD., priority 2014, published 2017).
Counter-ions that a name gives are not always drawn. Like-named read-outs stand apart in the source and are kept apart here.

Tests used:
Format in all cases: cell-based
ovarian cancer cells = test: Summary of cell viability, ovarian cancer cells; details: 72 hours, read-out: Inhibitory effect
Method: (§1) The cell numbers were counted and reseed as 2×10^6 in culture plate/flask. Then, the culture medium were added to a volume of 10 ml, and the cells were cultured for 2-3 days. Then, the cells were suspended for loading into 96-well plates. The number of cells was 3000 and the volume of the culture medium was 100 μl each well.
(§2) Removing the original culture medium from 96-well plate. Then add 100 μl of commercially drug at a concentration of 10 μM per well. After 72 hours, add the diluted WST-1 reagent to the well with 100 μl/well, and the diluted WST-1 reagent was acquired from the dilution of 9:1 medium and WST-1 stock reagent. Finally, the total volume of each well was 200 μl/well. Culture the 96-well plate at 37° C. for 30 to 90 minutes. Detecting and calculate the survival rate of each cancer cells with an ELISA reader at OD450 nm. The lower viability of cancer cells represents better inhibition effect via the Cinacalcet HCl drug. Otherwise, the higher viability of cancer cells represents worse inhibition effect via the Cinacalcet HCl drug.
(§3) Cinacalcet HCl is having different inhibitory effect on different tumor cell type even in the same cancer. […] (FIG. 1)

lung cancer cells = test: Summary of cell viability, lung cancer cells; details: 72 hours, read-out: Inhibitory effect
Method: as §1, §2, §3

prostate cancer cells = test: Summary of cell viability, prostate cancer cells; details: 72 hours, read-out: Inhibitory effect
Method: as §1, §2, §3

gastric cancer cells = test: Summary of cell viability, gastric cancer cells; details: 72 hours, read-out: Inhibitory effect
Method: as §1, §2, §3

AsPC-1 = test: Cell viability analysis (WST-1), AsPC-1; details: Homo sapiens, read-out: survival rate (viability) of cells
Method: as §1, §2
(§4) This inhibition test of Cinacalcet HCl on gastrointestinal tract-related cancer cells were using gastric cancer cell lines AGS and MKN-45 (Table 9), hepatic cancer cell lines HepG2 and Hep3B (Table 10), colorectal cancer cell lines HCT116-wt and LoVo (Table 11), pancreatic cancer cell line AsPC-1 and BxPC-3(Table 12), tongue cancer cell line SAS (Table 13). The inhibitory tests of Cinacalcet HCl were performed 4 times for each cell lines and then the average value of the inhibitory tests was calculated.

NIH-OVCAR-3 = test: Cell viability analysis (WST-1), NIH-OVCAR-3; details: Homo sapiens, read-out: survival rate (viability) of cells
Method: as §1, §2
This inhibition test of Cinacalcet HCl on endocrine-related cancer cells were using prostate cancer cell lines PC-3 and LNCap (Table 6), breast cancer cell lines MCF7 and MDA-MB-231 (Table 7), and ovarian cancer cell lines NIH-OVCAR-3 and TOV-21G (Table 8). The inhibitory tests of Cinacalcet HCl were performed 4 times for each cell lines and then the average value of the inhibitory tests was calculated.

Hep3B = test: Cell viability analysis (WST-1), Hep3B; details: Homo sapiens, read-out: survival rate (viability) of cells
Method: as §1, §2, §4

C[C@@H](NCCCc1cccc(C(F)(F)F)c1)c1cccc2ccccc12 [Cinacalcet HCl, Cinacalcet hydrochloride]
viability at 10 µM (ovarian cancer cells): 58.7%
viability at 10 µM (lung cancer cells): 83.1%
viability at 10 µM (prostate cancer cells): 81.7%
viability at 10 µM (gastric cancer cells): 123%
viability at 10 µM (AsPC-1; ASPC1, 10 μM, 72 hours, test 1-4-30 min): 71.9%
viability at 10 µM (AsPC-1; ASPC1, 10 μM, 72 hours, test 1-7-3-30 min): 61.6%
viability at 10 µM (AsPC-1; ASPC1, 10 μM, 72 hours, test 1-7-4-30 min): 81.7%
viability at 10 µM (AsPC-1; ASPC1, 10 μM, 72 hours, test 1-7-7-30 min): 60.4%
viability at 10 µM (AsPC-1; ASPC1, 72 h, 10 μM, Average of tests): 68.9%
viability at 10 µM (NIH-OVCAR-3; OVCAR-3, 10 μM, 72 hours, test 7-3-30 min): 90.7%
viability at 10 µM (NIH-OVCAR-3; OVCAR-3, 10 μM, 72 hours, test 7-4-30 min): 111%
viability at 10 µM (NIH-OVCAR-3; OVCAR-3, 10 μM, 72 hours, test 7-7-30 min): 100%
viability at 10 µM (NIH-OVCAR-3; OVCAR-3, 10 μM, 72 hours, test -4-30 min): 111%
viability at 10 µM (NIH-OVCAR-3; OVCAR-3, 72 h, 10 μM, average of tests): 103%
viability at 10 µM (Hep3B; 72 h, average of tests): 134%
viability at 10 µM (Hep3B; 72 hours, test 0612-20 min): 143%
viability at 10 µM (Hep3B; 72 hours, test 0614-20 min): 125%
viability at 10 µM (Hep3B; 72 hours, test 0616-20 min): 152%
viability at 10 µM (Hep3B; 72 hours, test 0619-20 min): 117%
